The values that follow come from ChEMBL document CHEMBL1201862, “PubChem BioAssay data set” (2004).

The target in test [1] is T1, Sentrin-specific protease 7 (Homo sapiens, UniProt Q9BQF6).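 Also: Luminescence-based dose-response confirmation of ultra-high-throughput screening hits, measuring inhibition of SENP7.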
T1 sequence (Q9BQF6 whole entry): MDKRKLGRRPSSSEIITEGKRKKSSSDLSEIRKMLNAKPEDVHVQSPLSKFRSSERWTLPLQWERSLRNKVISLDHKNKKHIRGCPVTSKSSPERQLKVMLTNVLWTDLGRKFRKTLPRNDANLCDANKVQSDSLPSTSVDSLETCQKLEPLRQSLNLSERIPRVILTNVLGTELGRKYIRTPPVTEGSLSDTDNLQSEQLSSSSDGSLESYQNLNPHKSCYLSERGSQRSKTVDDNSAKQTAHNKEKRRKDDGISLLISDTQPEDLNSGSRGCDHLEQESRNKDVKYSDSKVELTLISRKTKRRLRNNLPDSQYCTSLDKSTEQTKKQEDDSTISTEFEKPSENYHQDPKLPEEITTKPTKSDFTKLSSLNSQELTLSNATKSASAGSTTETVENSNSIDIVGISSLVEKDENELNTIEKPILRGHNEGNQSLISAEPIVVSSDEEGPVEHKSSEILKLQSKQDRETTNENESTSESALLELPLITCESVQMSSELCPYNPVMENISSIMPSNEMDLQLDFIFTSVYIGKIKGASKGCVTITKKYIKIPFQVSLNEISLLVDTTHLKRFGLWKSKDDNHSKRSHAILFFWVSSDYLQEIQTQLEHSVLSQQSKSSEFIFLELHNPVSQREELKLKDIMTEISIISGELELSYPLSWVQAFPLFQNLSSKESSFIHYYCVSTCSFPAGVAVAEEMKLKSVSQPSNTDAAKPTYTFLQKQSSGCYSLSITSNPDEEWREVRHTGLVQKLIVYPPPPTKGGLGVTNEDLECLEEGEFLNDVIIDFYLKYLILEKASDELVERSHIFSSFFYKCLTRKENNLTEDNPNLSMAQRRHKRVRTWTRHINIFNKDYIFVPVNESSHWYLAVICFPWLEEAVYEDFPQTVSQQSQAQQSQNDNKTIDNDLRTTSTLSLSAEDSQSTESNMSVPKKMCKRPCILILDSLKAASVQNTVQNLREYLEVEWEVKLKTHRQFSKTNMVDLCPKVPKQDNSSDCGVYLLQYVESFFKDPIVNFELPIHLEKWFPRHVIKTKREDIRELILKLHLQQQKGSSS
The class given is functional.

Test [2] addresses CAAX prenyl protease 2 (Saccharomyces cerevisiae S288c, UniProt Q03530). The class given is biochemical.
The target of test [3] is T2, Insulin-degrading enzyme (Homo sapiens, UniProt P14735).
T2 sequence (P14735 whole entry): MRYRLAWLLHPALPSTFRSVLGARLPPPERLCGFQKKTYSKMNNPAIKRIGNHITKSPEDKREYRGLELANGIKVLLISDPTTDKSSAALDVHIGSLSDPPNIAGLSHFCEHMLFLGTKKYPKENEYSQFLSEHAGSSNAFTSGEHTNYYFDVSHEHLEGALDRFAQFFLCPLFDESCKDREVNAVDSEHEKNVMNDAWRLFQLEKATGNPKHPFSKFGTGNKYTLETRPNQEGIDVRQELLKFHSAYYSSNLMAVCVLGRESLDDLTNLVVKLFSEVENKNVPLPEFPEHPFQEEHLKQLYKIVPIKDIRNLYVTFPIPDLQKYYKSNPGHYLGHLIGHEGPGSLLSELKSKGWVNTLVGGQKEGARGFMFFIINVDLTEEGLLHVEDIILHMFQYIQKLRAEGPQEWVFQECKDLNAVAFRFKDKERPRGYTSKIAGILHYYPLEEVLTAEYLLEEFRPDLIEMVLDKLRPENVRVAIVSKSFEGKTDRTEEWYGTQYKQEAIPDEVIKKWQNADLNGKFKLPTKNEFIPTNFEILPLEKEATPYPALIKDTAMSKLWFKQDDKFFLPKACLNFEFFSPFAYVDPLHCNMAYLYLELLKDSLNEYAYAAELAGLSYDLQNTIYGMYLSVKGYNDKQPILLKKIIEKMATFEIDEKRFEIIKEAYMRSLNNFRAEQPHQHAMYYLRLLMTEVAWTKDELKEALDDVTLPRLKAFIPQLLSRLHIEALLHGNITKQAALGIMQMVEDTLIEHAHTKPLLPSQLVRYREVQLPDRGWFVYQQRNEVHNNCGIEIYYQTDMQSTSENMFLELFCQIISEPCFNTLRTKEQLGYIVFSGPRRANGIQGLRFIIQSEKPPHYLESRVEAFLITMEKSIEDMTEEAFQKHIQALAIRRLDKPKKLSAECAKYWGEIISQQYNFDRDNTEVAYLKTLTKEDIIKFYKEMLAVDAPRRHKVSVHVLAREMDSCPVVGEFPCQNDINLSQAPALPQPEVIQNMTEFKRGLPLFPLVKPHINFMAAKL
In words: activators of recombinant IDE enzyme, dose response, counter-screen for IDE activator project, biochemical, fluorescence polarization (AID 588681).

Test [4] has as its system HEK293. In words: HEK cell cytotoxicity by LDH release, dose response, cytotoxicity control for IDE activator project, fluorescence, HEK cells (AID 588440).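 Also: cytotoxicity by LDH release measuring loss of membrane integrity.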 The class given is functional, cell-based. The conditions noted are these: Homo sapiens.
For test [5], the target named is DNA repair protein RAD52 homolog (Homo sapiens, UniProt P43351). The class given is functional, biochemical.
For test [6], the target named is Phosphorylase b kinase gamma catalytic chain, liver/testis isoform (Homo sapiens, UniProt P15735). The class given is functional.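 Also: PHKG2 measured as one member of a kinome-wide kinase panel.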
The target of test [7] is Serine/threonine-protein kinase PLK3 (Homo sapiens, UniProt Q9H4B4). The class given is functional.
Chain of Serine/threonine-protein kinase PLK3 (Q9H4B4 whole entry): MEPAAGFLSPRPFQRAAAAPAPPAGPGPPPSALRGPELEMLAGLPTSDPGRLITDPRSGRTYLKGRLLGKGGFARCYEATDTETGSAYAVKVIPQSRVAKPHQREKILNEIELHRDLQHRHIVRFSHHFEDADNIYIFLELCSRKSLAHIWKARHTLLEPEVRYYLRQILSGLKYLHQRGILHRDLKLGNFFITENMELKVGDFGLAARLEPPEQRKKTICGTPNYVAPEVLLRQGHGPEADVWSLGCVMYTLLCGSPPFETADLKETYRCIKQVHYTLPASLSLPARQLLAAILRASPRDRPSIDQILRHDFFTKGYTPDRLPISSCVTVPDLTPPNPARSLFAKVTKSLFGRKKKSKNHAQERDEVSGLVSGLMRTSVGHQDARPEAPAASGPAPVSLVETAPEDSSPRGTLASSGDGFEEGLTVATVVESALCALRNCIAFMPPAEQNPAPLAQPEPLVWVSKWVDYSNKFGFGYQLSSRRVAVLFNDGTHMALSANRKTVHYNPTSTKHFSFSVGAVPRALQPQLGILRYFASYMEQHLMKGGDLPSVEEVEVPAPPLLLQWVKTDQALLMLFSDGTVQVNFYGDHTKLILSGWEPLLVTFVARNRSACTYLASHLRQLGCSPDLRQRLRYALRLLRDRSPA
The target of test [8] is Serine/threonine-protein kinase PLK4 (Homo sapiens, UniProt O00444). The class given is functional.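 Also: PLK4 measured as one member of a kinome-wide kinase profiling panel.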
Chain of Serine/threonine-protein kinase PLK4 (O00444 whole entry): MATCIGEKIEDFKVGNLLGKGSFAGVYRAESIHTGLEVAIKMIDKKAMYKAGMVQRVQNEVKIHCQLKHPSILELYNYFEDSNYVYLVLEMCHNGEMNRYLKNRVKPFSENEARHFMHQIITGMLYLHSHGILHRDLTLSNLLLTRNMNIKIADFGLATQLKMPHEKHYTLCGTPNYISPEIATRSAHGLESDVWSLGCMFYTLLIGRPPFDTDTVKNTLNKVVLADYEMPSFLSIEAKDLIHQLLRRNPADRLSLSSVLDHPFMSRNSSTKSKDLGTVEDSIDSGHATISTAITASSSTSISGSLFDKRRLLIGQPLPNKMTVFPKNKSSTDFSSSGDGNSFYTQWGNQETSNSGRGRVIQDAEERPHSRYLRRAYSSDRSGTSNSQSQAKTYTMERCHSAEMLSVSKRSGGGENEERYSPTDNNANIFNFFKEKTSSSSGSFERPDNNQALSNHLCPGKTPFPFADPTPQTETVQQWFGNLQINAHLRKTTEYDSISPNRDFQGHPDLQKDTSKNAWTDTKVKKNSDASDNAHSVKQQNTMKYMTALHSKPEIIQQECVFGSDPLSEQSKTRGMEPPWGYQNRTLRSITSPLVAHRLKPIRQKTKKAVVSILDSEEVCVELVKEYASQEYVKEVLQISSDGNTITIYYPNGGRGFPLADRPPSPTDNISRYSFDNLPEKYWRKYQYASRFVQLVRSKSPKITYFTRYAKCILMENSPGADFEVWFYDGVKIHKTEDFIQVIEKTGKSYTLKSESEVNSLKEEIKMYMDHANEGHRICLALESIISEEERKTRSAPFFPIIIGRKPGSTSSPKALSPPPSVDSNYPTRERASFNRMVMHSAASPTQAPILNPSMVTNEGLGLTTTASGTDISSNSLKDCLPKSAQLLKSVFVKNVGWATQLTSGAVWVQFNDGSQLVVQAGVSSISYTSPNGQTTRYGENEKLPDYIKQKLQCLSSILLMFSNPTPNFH
Test [9] has as its target Serine/threonine-protein kinase D2 (Homo sapiens, UniProt Q9BZL6). The class given is functional.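 Also: measured against PRKD2 as one member of a kinome-wide kinase profiling panel.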
Test [10] addresses Mitogen-activated protein kinase 9 (Homo sapiens, UniProt P45984). The class given is functional.
The target of test [11] is Tyrosine-protein kinase Srms (Homo sapiens, UniProt Q9H3Y6). The class given is functional.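 Also: SRMS measured as one member of a kinome-wide kinase profiling panel.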
For test [12], the target named is Mitogen-activated protein kinase kinase kinase kinase 2 (Homo sapiens, UniProt Q12851). The class given is functional.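 Also: measured as one member of a kinome-wide kinase panel, with MAP4K2 as the panel entry.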
Chain of Mitogen-activated protein kinase kinase kinase kinase 2 (Q12851 whole entry, canonical isoform): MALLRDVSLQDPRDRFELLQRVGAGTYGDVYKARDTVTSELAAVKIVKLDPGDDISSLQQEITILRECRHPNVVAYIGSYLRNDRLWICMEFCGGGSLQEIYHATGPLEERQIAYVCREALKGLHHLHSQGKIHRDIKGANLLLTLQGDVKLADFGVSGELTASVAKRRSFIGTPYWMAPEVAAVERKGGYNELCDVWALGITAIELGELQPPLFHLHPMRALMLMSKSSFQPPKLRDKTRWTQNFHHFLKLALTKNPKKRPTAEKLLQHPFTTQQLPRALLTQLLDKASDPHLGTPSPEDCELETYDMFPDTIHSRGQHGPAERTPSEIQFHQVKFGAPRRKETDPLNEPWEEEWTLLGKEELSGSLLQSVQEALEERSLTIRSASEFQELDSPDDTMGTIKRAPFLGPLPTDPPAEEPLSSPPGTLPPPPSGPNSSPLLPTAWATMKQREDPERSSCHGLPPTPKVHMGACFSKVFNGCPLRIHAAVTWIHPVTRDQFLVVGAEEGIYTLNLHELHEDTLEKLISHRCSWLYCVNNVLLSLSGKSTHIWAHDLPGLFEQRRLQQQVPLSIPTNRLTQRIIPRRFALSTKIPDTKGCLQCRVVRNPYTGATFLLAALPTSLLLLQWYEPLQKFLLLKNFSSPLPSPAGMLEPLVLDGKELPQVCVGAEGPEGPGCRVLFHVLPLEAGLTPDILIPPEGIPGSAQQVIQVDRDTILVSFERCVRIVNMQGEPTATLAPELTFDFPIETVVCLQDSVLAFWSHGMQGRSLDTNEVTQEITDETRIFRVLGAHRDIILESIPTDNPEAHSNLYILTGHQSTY
Test [13] addresses Casein kinase I isoform delta (Homo sapiens, UniProt P48730). The class given is functional.
Test [14] concerns the target Dual specificity tyrosine-phosphorylation-regulated kinase 1A (Homo sapiens, UniProt Q13627). The class given is functional.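 Also: measured against DYRK1A as one member of a broad kinome profiling panel.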
Test [15] has as its target Inhibitor of nuclear factor kappa-B kinase subunit epsilon (Homo sapiens, UniProt Q14164). The test can be described thus: Navigating the Kinome. Panel member name: IKBKE. The class given is functional.

The source made the active and inactive calls.

Chain of Serine/threonine-protein kinase D2 (Q9BZL6 whole entry): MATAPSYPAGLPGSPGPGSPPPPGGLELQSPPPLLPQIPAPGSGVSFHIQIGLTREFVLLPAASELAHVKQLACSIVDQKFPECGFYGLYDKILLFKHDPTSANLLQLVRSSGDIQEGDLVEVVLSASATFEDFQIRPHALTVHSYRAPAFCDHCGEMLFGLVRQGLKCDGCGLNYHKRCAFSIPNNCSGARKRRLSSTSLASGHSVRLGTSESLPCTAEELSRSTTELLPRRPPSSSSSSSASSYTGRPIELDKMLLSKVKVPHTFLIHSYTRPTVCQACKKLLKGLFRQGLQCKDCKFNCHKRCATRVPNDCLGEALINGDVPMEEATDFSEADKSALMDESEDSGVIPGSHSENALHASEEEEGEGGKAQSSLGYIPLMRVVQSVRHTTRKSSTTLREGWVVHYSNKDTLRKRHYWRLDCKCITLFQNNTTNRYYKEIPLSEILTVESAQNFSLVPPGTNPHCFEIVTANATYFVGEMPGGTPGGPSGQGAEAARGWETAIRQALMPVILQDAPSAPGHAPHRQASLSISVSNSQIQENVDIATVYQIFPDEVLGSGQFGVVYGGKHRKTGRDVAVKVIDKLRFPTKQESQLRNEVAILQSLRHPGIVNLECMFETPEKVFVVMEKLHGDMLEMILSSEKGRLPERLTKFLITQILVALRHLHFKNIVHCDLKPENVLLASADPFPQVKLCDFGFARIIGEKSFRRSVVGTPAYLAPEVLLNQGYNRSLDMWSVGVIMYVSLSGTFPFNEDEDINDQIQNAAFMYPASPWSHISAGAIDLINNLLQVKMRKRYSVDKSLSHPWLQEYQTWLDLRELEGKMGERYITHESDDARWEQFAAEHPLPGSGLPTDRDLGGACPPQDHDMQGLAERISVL
Chain of CAAX prenyl protease 2 (Q03530 whole entry): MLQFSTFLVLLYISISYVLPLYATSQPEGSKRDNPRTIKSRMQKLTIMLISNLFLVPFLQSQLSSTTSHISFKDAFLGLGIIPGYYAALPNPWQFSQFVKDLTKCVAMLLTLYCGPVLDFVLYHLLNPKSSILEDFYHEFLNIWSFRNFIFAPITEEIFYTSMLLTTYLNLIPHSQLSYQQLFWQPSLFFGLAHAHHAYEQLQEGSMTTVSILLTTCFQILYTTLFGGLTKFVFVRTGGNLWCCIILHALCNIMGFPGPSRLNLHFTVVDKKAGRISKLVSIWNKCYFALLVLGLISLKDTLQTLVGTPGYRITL
Chain of Mitogen-activated protein kinase 9 (P45984 whole entry): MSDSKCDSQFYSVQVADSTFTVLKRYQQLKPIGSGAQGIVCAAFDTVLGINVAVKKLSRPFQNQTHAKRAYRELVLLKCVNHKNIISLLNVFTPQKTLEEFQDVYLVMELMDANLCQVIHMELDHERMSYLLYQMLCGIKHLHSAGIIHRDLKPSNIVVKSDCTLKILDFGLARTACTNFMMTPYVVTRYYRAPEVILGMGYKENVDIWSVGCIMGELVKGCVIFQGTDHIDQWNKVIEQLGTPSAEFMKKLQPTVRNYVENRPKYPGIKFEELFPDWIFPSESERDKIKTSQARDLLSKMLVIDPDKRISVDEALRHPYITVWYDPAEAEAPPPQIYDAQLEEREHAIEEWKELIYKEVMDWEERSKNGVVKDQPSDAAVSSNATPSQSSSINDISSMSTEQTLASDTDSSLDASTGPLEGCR
Chain of Inhibitor of nuclear factor kappa-B kinase subunit epsilon (Q14164 whole entry): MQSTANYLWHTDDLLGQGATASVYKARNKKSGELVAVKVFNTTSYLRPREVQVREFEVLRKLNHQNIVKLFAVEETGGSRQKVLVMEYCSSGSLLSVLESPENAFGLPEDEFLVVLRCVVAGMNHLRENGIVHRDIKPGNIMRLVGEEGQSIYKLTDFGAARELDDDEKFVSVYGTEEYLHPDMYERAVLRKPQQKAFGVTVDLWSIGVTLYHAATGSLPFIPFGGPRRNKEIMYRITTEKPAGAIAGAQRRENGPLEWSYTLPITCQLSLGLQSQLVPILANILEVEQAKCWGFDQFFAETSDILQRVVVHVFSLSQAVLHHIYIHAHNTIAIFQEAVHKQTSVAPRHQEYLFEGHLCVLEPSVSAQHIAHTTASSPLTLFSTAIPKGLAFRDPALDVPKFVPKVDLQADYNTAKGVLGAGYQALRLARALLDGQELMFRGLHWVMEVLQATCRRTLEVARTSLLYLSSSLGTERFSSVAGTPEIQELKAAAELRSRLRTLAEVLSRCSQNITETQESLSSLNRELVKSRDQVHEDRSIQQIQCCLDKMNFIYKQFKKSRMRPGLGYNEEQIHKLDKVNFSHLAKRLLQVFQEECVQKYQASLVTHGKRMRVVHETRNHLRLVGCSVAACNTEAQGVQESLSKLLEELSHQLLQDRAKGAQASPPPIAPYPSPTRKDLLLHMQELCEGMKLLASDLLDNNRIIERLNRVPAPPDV

Regarding `CCC(C)n1c(NC(=O)c2ccccc2)c(C#N)c2nc3ccccc3nc21` (stereo unspecified), the IC50 (in general, the midpoint of a concentration-inhibition curve) in test [1] was 2.82 µM (active).
Consider `CCCCCCCCCCOC(=O)C[n+]1c(COc2ccc(C)cc2)n(C)c2ccccc21`, for which the AC50 (commonly the concentration giving half of the maximal activity seen) in test [2] was 5.51 µM (active); in test [5], 9.47 µM (active). Further, the EC50 (commonly the midpoint of the concentration-response curve) in [3] is 16.9 µM (inactive). For the same compound, the 50% inhibitory concentration (IC50) in [4] is 7.28 µM (active).
For the compound `O=C(CCl)Oc1ccc2occ(C(=O)c3cccs3)c2c1`, in test [1], the IC50 is 10.7 µM (active).
On to `CN1CCN(c2nc(C3=C(c4c[nH]c5ccccc45)C(=O)NC3=O)c3ccccc3n2)CC1` [SOTRASTAURIN], for which the Ki (as a rule, the equilibrium dissociation constant of an inhibitor or competing ligand from its target) is > 5.01 µM (inactive) in test [6]; > 7.94 µM (inactive) in [7]; > 3.98 µM (inactive) in test [8]; > 10 µM (inactive) in test [9]; > 3.98 µM (inactive) in test [10]; > 1.58 µM (inactive) in test [11]. Further, the Ki was > 5.01 µM (inactive) in test [12], > 7.94 µM (inactive) in test [13], > 3.98 µM (inactive) in test [14] and > 3.16 µM (inactive) in [15].
